Legend:
[1] = Cyclic voltammetry of kynurenine metabolites with Cu(II); format: physicochemical; conditions: metabolite 100 μM, cupric chloride 25 μM, PBS pH 7.4
Experimental: Cyclic Voltammetry—Cyclic voltammetry was performed at room temperature (22±2° C.) on ambient solutions using an EG&G PAR potentiostat, Model 273. The potentiostat was operated in Ramp Mode, generating a potential staircase waveform with a 0.25 mV step height. The potential window of +0.15 to −0.4V, in which Cu(I) is electroactive, but the metabolites are not, was scanned in both directions at a rate of 100 mV/sec. The current response was passed through a 5.3 Hz low pass filter. A minimum of three cycles were collected for each scan, ensuring the stability of the electrochemical response. The electrochemical cell consisted of an indium/tin oxide working electrode (Delta Technologies) with an active area of 0.32 cm^2, a platinum wire auxiliary electrode, and a Ag/AgCl (1 M KCl) reference electrode (Microelectrodes Inc.). Both the auxiliary and reference electrodes were positioned in the cell in close proximity to the working electrode. The working electrodes were pretreated with successive 10 minute sonications in Alconox (˜8 g/L), 95% ethanol, Milli-Q purified H2O (2×), and PBS (pH 7.4), followed by an overnight soak in PBS (pH 7.4). The ITO electrodes were subsequently “activated” immediately prior to use by successive cycling in PBS for three cycles in each of the following potential windows: +0.15 ? −0.4 V, +0.4 ? −0.4 V, and +1.0 ? −0.4 V. Cupric chloride (25 μM; Allied Chemical) was used as the Cu(II) source. Background voltammograms were obtained on each new electrode before testing the kynurenine pathway metabolites. PBS solutions of KYN, 3-HK, ANA, and 3-HAA (each at 100 μM) were separately scanned with and without added Cu(II) (25 μM). Each experiment also included a scan of Cu(II) (25 μM) in PBS without added test compound. All solutions were tested within minutes of being prepared. Each test was repeated to ensure the reproducibility of the results.
The voltammograms in FIGS. 3A–3D compare 3-HK and 3-HAA to their corresponding non-phenolic analogs, kynurenine (KYN) and anthranilic acid (ANA), in aqueous solutions of Cu(II) at pH 7.4. […] At potentials above +0.15 V, the metabolites undergo direct irreversible oxidation, a reaction that is not considered further here. Cyclic voltammetry of Cu(II) in PBS yielded a current response at ≈−100 mV due to reduction of the metal ion (scan “b” in each panel).

[2] = Hydrogen peroxide assay (DCF fluorometric); format: biochemical; conditions: for hydrogen peroxide production: Cu(II) present, dark
Experimental: Hydrogen Peroxide Assay—The fluorometric assay for hydrogen peroxide is based on the dichlorofluorescein diacetate (DCF) method (Molecular Probes, Eugene, Oreg.). The DCF solution (5 mM) in 100% ethanol was deacetylated in the presence of 0.01 M NaOH for 30 minutes and neutralized. Horseradish peroxidase (200 U/ml) was then added and the DCF concentration adjusted to 200 μM in PBS. The reaction solutions were carried out in PBS, pH 7.4, in a 96-well format plate (total volume=300 μL/well) and contained a test compound (KYN, 3-HK, 3-HAA, ANA, or ASC, each at 10 μM), deacetylated DCF (20 μM), and Cu(II)-glycine (1 μM) as indicated, incubated at 37° C. for 60 minutes. […] Abolition of the reading by co-incubation with catalase (1000 U/ml) was used for establishing H2O2 specificity. The fluorescent readings were recorded by a Packard FLURORCOUNT™ fluorescent plate reader with a 485 nm excitation filter and 530 nm emission filter. Concentrations were determined by comparison to a standard curve using reagent grade hydrogen peroxide in CHELEX™ chelating ion exchanae resin-treated PBS buffer, pH 7.4.
Reactions were conducted in the absence of added Cu(II), in the presence of added glycine-complexed Cu(II) (1 μM), in the presence of added glycine-complexed Cu(II) (1 μM) and catalase (1000 U/ml), or with added glycine-complexed Cu(II) (1 μM) and the copper chelator triethylenetetramine (TETA, 200 μM).

α-crystallin = target: T1, α-crystallin (Bos taurus, UniProt P02470+P02510); assay: α-Crystallin modification under longwave ultraviolet illumination; format: biochemical; conditions: exposure of α-crystallin in the presence of longwave ultraviolet illumination
T1 sequence (P02470 1-173): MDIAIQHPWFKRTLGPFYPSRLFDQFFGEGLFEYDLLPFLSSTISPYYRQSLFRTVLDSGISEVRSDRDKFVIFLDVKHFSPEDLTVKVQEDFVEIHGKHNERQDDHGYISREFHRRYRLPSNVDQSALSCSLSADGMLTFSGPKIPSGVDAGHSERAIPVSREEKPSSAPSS
T1 sequence (P02510 1-175): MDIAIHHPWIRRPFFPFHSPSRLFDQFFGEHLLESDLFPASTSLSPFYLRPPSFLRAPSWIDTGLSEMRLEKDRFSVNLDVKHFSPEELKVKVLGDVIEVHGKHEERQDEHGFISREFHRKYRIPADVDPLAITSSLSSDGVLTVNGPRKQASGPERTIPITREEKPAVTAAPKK

[3] = Thiobarbituric acid-reactive substance (TBARS) assay for hydroxyl radical; format: biochemical; conditions: reaction with Cu(II)
Description: Although two Fenton chemistry substrates, hydrogen peroxide and reduced redox-active metal, are produced by 3-HK and 3-HAA, evidence of the hydroxyl radical was not detected using the thiobarbituric acid-reactive substance assay (Huang, X. et al., Biochem. 38:7609–7616 (1999)) (data not shown).

[4] = Hydrogen peroxide assay (DCF fluorometric); format: biochemical; conditions: reacting with Cu(II), 37° C., dark
[5] = target: bovine serum albumin (BSA) (Bos taurus, UniProt P02769); conditions: co-incubation with Cu(II), 5 days 37° C. dark
bovine serum albumin (BSA), sequence (P02769 25-607): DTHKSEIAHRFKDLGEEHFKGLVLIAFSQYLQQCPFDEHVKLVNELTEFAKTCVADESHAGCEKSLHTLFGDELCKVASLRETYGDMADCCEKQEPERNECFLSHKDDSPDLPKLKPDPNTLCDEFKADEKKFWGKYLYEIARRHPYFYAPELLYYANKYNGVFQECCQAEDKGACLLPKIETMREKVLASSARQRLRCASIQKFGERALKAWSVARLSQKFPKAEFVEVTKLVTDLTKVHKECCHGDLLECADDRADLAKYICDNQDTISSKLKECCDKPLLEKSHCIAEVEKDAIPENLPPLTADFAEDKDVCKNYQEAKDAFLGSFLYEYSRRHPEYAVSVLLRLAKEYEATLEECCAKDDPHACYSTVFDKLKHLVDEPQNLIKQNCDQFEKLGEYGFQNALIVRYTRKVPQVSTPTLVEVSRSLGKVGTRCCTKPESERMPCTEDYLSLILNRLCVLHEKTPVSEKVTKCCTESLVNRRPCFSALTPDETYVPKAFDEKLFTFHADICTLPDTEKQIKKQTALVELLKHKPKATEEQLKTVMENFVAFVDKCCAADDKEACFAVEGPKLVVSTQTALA

Question: With `Nc1c(O)cccc1C(=O)CC(N)C(=O)O` (stereo not shown) [3-HK, 3-hydroxykynurenine] as the molecule, how does the “Cu(II) reduction wave in presence of metabolite” value [1] read?
Answer: nearly abolished

Question: What about the “hydrogen peroxide generated relative to available Cu(II)” value [2] of the same molecule?
Answer: approximately 3 fold

Question: And the hydrogen peroxide generated ([2]; ambient gas conditions, CHELEX-treated PBS, FIG. 4C)?
Answer: approx. 3 μM

Question: What about the hydrogen peroxide production ([2]; ambient oxygen tension) of the same molecule?
Answer: 1.49 μM H2O2

Question: What about the hydrogen peroxide production ([2]; high oxygen tension) of the same molecule?
Answer: 1.84 μM H2O2

Question: And the hydrogen peroxide production ([2]; low oxygen tension (continuous argon sparging))?
Answer: 0.35 μM H2O2

Question: What about the “capacity of altered α-crystallin to reduce metal and generate hydrogen peroxide” value (α-crystallin) of the same molecule?
Answer: dramatically enhanced capacity

Question: What about the “evidence of the hydroxyl radical” value [3] of the same molecule?
Answer: not detected

Question: What about the “time dependence of hydrogen peroxide generation” value [4] of the same molecule?
Answer: continuous over five hours

Question: And the “BSA protein depletion with Cu(II)” value [5]?
Answer: the monomer was depleted without emergence of apparent detectable cross-linked species

— patent US7166472B2, “Method for the identification of agents that inhibit or promote cataracts and uses thereof” (The General Hospital Corporation, priority 2000, dated 2007)
